Broadly, the IC50 is the concentration that inhibits the measured activity by half.

IC50 data for one molecule are collected here from publication PMC8184855, “A small molecule inhibitor of Nox2 and Nox4 improves contractile function after ischemia–reperfusion in the mouse heart” (Scientific Reports, 2021).

In this assay the target is T1, Nox4 (Homo sapiens, UniProt Q9NPH5).
T1 sequence (Q9NPH5 1-578): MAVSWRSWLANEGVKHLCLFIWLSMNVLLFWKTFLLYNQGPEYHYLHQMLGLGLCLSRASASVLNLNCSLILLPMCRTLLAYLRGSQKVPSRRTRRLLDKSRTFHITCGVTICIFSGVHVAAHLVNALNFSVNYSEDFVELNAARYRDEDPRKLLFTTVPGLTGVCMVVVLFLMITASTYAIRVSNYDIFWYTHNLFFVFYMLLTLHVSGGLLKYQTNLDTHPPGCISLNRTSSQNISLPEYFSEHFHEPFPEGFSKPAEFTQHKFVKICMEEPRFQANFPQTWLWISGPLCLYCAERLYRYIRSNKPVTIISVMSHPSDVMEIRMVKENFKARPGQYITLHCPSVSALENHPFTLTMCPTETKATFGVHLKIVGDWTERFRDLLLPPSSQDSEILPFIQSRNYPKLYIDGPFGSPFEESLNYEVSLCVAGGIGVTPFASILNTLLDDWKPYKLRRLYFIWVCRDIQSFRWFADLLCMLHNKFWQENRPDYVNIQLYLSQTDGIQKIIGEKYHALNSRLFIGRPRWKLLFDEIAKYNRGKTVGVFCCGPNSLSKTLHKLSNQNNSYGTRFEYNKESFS
Put plainly: Amplex Red H2O2 assay in CJ HEK […] cells overexpressing Nox4 (found by screen in T-Rex-293 with inducible Nox4); H2O2 counter-screen and DPPH redox control. Format: cell-based.

Regarding `COc1cccc(N2CCN(Cc3nc(N)nc(Nc4ccc(C)c(C)c4)n3)CC2)c1` [GLX481304], the IC50 worked out at 1250 nM.
